This note sets out measurements from US10125126B2, “N-cycloalkyl-N-[(heterocyclylphenyl)methylene]-(thio)carboxamide derivatives” (BAYER CROPSCIENCE AG, priority 2012, dated 2018).

By logP is commonly meant a log measure of how a compound divides between an organic and an aqueous phase. As a reminder, the chromatographic logP is a lipophilicity value derived from retention on a column. A high value points to higher lipophilicity.

The test system of one data set is Pyrenophora teres. The experiment in a line: In vivo preventive test on Pyrenophora teres (barley). To be noted: 500 ppm of active ingredient; barley plants; 14 days after contamination. On the procedure:
In Vivo Preventive Test on Pyrenophora teres (Barley) […] Barley plants (“Plaisant” variety), sown in starter cups on a 50/50 peat soil pozzolana substrate and grown at 22° C., are treated at the 1 leaf stage (10 cm height) by spraying with the active ingredient prepared as described above. Plants, used as controls, are treated with the mixture of acetone/tween/DMSO/water not containing the active material. After 24 hours, the plants are contaminated by spraying the leaves with an aqueous suspension of Pyrenophora teres spores (12 000 spores per mL). The spores are collected from a 12-day-old culture. […] Grading (% of efficacy) is carried out 14 days after the contamination, in comparison with the control plants.

For a further data set, the system named is Septoria tritici. The experiment in a line: In vivo preventive test on Septoria tritici (wheat). To be noted: 500 ppm of active ingredient; wheat plants; 24 days after contamination. The method, boiled down:
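Scipion wheat grown at 22° C, sprayed at 1-leaf stage (10 cm); controls received acetone/tween/DMSO/water without active. Inoculated 24 h later with S. tritici spores (500 000/mL), held 72 h at 18° C, 100% RH, then 21 days at 90% RH. % efficacy vs controls scored 24 days post-inoculation.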

The subject of a further data set is Alternaria brassicae. Briefly: In vivo preventive test on Alternaria brassicae (leaf spot on radish). Conditions: 500 ppm of active ingredient; radish plants; 6 days after contamination. How it is done: In Vivo Preventive Test on Alternaria brassicae (Leaf Spot on Radish) […] Radish plants (“Pernod Clair” variety), sown in starter cups on a 50/50 peat soil pozzolana substrate and grown at 17° C., are treated at the cotyledon stage by spraying with the active ingredient prepared as described above. Plants, used as controls, are treated with the mixture of acetone/tween/DMSO/water not containing the active material. After 24 hours, the plants are contaminated by spraying the cotyledons with an aqueous suspension of Alternaria brassicae spores (50 000 spores per mL). The spores are collected from a 15-day-old culture. The contaminated radish plants are incubated at 20° C. and at 100% relative humidity. Grading (% of efficacy) is carried out 6 days after the contamination, in comparison with the control plants.

The test system of the next data set is Uromyces appendiculatus. Briefly: In vivo preventive test on Uromyces appendiculatus (bean rust). Conditions: 500 ppm of active ingredient; bean plants; 11 days after contamination. An outline of the steps:
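Saxa bean plants at 2-leaf stage, grown at 24° C., sprayed preventively with compound; 24 h later inoculated with U. appendiculatus spores (150 000 spores per mL). Percent efficacy graded 11 days after inoculation versus solvent-treated controls.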

A further data set deals with Sphaerotheca fuliginea. The experiment in a line: In vivo preventive test on Sphaerotheca fuliginea (powdery mildew on cucurbits). To be noted: 500 ppm of active ingredient, gherkin plants, 12 days after contamination. The method, boiled down: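 Gherkin plants ("Vert petit de Paris") grown at 24 °C were sprayed at cotyledon stage Z11; controls received acetone/tween/DMSO/water without active. Inoculation 24 h later by spraying cotyledons with 100 000 spores/mL. Efficacy (%) graded 12 days post-contamination versus controls.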

The next data set concerns Puccinia recondita. The experiment in a line: In vivo preventive test on Puccinia recondita (brown rust on wheat). Conditions: 500 ppm of active ingredient; wheat plants; 12 days after contamination. The method, boiled down:
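Wheat plants ("Scipion") at 1-leaf stage, grown at 22° C, were sprayed with compound, then inoculated 24 h later with Puccinia recondita spores (100 000 spores per mL). Efficacy (%) graded 12 days after inoculation relative to solvent-treated controls.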

Data set [1] in a line: log P by HPLC on a reversed-phase column (C 18), EEC Directive 79/831 Annex V.A8. In kind it is physicochemical. To be noted: for logP: HPLC on reversed-phase column (C 18), 40° C., 0.1% aqueous formic acid and acetonitrile, linear gradient 10% to 90% acetonitrile. The method, boiled down: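 Retention times were converted to log P by linear interpolation between two successive unbranched alkan-2-ones (3 to 16 carbon atoms) of known log P used for calibration. Elution ran at 40° C with a linear gradient from 10% to 90% acetonitrile against 0.1% aqueous formic acid.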

Another data set deals with Botrytis cinerea. The experiment in a line: In vivo preventive test on Botrytis cinerea (grey mould). Conditions: 500 ppm of active ingredient; gherkin plants; 4 to 5 days after contamination. The method, boiled down: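 Gherkin plants at cotyledon stage Z11 were sprayed with compound, then inoculated 24 h later with Botrytis cinerea spores (50 000 spores per mL in nutrient solution). Plants were kept at 17° C and 90% RH, and percent efficacy versus solvent-treated controls was graded 4 to 5 days after contamination.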

In data set [2] the test system is Blumeria graminis f.sp. hordei. The experiment in a line: In vivo preventive test on Blumeria graminis (barley). Conditions: 500 ppm of active ingredient, evaluated 7 days after inoculation. How it is done:
(§1) In Vivo Preventive Test on Blumeria graminis (Barley) [table] To produce a suitable preparation of active compound, 1 part by weight of active compound or active compound combination is mixed with the stated amounts of solvent and emulsifier, and the concentrate is diluted with water to the desired concentration. To test for preventive activity, young plants are sprayed with the preparation of active compound or active compound combination at the stated rate of application. After the spray coating has been dried, the plants are dusted with spores of Blumeria graminis f.sp. hordei.

In a further data set the test system is Leptosphaeria nodorum. The experiment in a line: In vivo preventive test on Leptosphaeria nodorum (wheat). To be noted: 500 ppm of active ingredient, evaluated 8 days after inoculation. On the procedure: as §1, with “Leptosphaeria nodorum Test (Wheat)” for “Blumeria graminis (Barley)”, “sprayed” for “dusted”, “a spore suspension” for “spores”, “Leptosphaeria nodorum. The plants remain for 48 hours in an incubation cabinet at approximately 20° C. and a relative atmospheric humidity of approximately 100%.” for “Blumeria graminis f.sp. hordei.”

For `Cn1nc(C(F)F)c(C(=O)N(Cc2cc(F)ccc2-c2ccsc2Cl)C2CC2)c1F` [I.136], the Efficacy with Pyrenophora teres is 86%; in the data set with Septoria tritici, 93%; in the data set with Alternaria brassicae it was 70%; in the data set on Uromyces appendiculatus it was 100%; in the data set on Sphaerotheca fuliginea, 100%; in the data set with Puccinia recondita it was 98%. Further, the logP in [1] is recorded as 4.04.
For `Cn1nc(C(F)F)c(C(=O)N(Cc2ccccc2-c2coc3ccccc23)C2CC2)c1F` [I.131], the Efficacy was 93% in the data set with Pyrenophora teres; 96% in the data set with Septoria tritici; 91% in the data set with Alternaria brassicae; 100% in the data set on Botrytis cinerea; 98% in the data set on Sphaerotheca fuliginea; 75% in the data set with Puccinia recondita. In [1], this compound came in with a logP of 3.96.
Take `Cn1nc(C(F)F)c(C(=O)N(Cc2cc(Cl)ccc2-c2ccoc2)C2CC2)c1F` [I.28]: the Efficacy turned out to be 79% with Pyrenophora teres; 97% in the data set with Septoria tritici; 96% in the data set with Alternaria brassicae; 99% in the data set on Uromyces appendiculatus; 94% in the data set with Puccinia recondita. The logP in data set [1] is recorded as 3.64.
With `Cn1cc(-c2ccccc2CN(C(=O)c2c(C(F)F)nn(C)c2F)C2CC2)cn1` [I.54], the Efficacy is reported as 100% in the data set on Septoria tritici; 83% in the data set on Alternaria brassicae; 97% in the data set with Uromyces appendiculatus; 97% in the data set on Botrytis cinerea; 95% with Sphaerotheca fuliginea; 80% in the data set with Puccinia recondita. In addition, the logP in data set [1] is 2.34.
For the compound `Cc1cscc1-c1ccc(F)cc1CN(C(=O)c1c(C(F)F)nn(C)c1F)C1CC1` [I.102], the Efficacy in the data set on Septoria tritici is given as 95%; in the data set on Alternaria brassicae, 83%; in the data set on Uromyces appendiculatus it was 100%; with Botrytis cinerea it was 94%; in the data set on Sphaerotheca fuliginea it was 100%; with Puccinia recondita, 100%. The logP in data set [1] came to 3.94.
`Cn1nc(C(F)F)c(C(=O)N(Cc2cc(Cl)ccc2-c2coc3ccccc23)C2CC2)c1F` [I.130]: the Efficacy came to 79% in the data set on Pyrenophora teres; 93% in the data set on Septoria tritici; 96% with Alternaria brassicae; 85% in the data set with Uromyces appendiculatus; 100% in the data set on Sphaerotheca fuliginea; 81% in the data set on Puccinia recondita. The compound also registered a logP in [1] of 4.44.
Turning to `CC(C)c1ccc(-c2ccn(C)c2)cc1CN(C(=O)c1c(C(F)F)nn(C)c1F)C1CC1` [I.50], the Efficacy with Pyrenophora teres stood at 100%; in the data set on Septoria tritici, 97%; in the data set on Alternaria brassicae, 96%; in the data set with Uromyces appendiculatus, 99%; in the data set on Botrytis cinerea, 99%; with Sphaerotheca fuliginea, 100%. In the data set on Puccinia recondita, this compound returned an Efficacy of 100%. In data set [1], this compound showed a logP of 3.99.
For the compound `Cn1nc(C(F)F)c(C(=O)N(Cc2ccccc2-c2ccoc2)C2CC2)c1F` [I.29], the Efficacy in the data set with Pyrenophora teres came to 93%; in the data set on Septoria tritici it was 96%; in the data set with Alternaria brassicae, 82%; with Uromyces appendiculatus, 100%; in the data set with Botrytis cinerea, 100%; in the data set with Puccinia recondita, 81%. The same compound gave a logP in data set [1] of 3.23.
`Cc1cscc1-c1ccccc1CN(C(=O)c1c(C(F)F)nn(C)c1F)C1CC1` [I.105]: the Efficacy in the data set with Pyrenophora teres came out at 97%; in the data set with Septoria tritici, 80%; in the data set with Uromyces appendiculatus, 100%; with Sphaerotheca fuliginea, 100%; in the data set on Puccinia recondita, 100%; in [2] it was 100%. This compound also registered a logP in data set [1] of 3.90.
In the case of `Cn1nc(C(F)F)c(C(=O)N(Cc2cc(F)ccc2-c2csc3ccccc23)C2CC2)c1F` [I.154], the Efficacy was found to be 71% with Pyrenophora teres; 96% with Septoria tritici; 75% with Alternaria brassicae; 98% in the data set on Sphaerotheca fuliginea; 75% with Puccinia recondita. This compound also returned a logP in [1] of 4.39.
For `Cc1csc(-c2ccccc2CN(C(=O)c2c(C(F)F)nn(C)c2F)C2CC2)c1` [I.100, N-cyclopropyl-3-(difluoromethyl)-5-fluoro-1-methyl-N-[2-(4-methyl-2-thienyl)benzyl]-1H-pyrazole-4-carboxamide], the Efficacy in the data set with Pyrenophora teres was found to be 95%; with Septoria tritici, 100%; in the data set on Uromyces appendiculatus, 100%; with Botrytis cinerea, 80%; in the data set on Puccinia recondita, 100%; in data set [2] it was 100%. Further, in the data set on Leptosphaeria nodorum, the Efficacy is reported as 83%. Further, the pest or weed control at 500 ppm in the data set on Sphaerotheca fuliginea (Podosphaera fuliginea, 288 h, read-out: Efficacy) is 100%. The compound also registered a chromatographic logP in data set [1] (logP) of 3.99.
`Cn1nc(C(F)F)c(C(=S)N(Cc2cc(Cl)ccc2-c2cccs2)C2CC2)c1F` [I.74]: the Efficacy in the data set with Alternaria brassicae is reported as 83%; with Uromyces appendiculatus it was 100%; in the data set with Botrytis cinerea it was 100%; with Sphaerotheca fuliginea it was 100%; in the data set with Puccinia recondita, 94%. The log partition coefficient (logP) in [1] is on record as 4.69.
With `Cn1nc(C(F)F)c(C(=O)N(Cc2cc(F)ccc2-c2coc3ccccc23)C2CC2)c1F` [I.129], the Efficacy in the data set with Pyrenophora teres came to 86%; in the data set with Septoria tritici, 90%; in the data set with Alternaria brassicae, 97%; in the data set with Uromyces appendiculatus, 96%; in the data set with Botrytis cinerea, 92%; in the data set on Sphaerotheca fuliginea it was 100%. For the same compound, in data set [1], the log partition coefficient (logP) was found to be 4.06.
Consider `Cn1nc(C(F)F)c(C(=O)N(Cc2cc(Cl)ccc2-c2ccsc2Cl)C2CC2)c1F` [I.137], for which the Efficacy with Pyrenophora teres is 79%; in the data set with Septoria tritici it was 97%; in the data set with Alternaria brassicae it was 70%; in the data set with Sphaerotheca fuliginea, 100%; with Puccinia recondita, 88%. The logP in data set [1] worked out at 4.41.
On to `Cc1csc(-c2ccc(F)cc2CN(C(=O)c2c(C(F)F)nn(C)c2F)C2CC2)c1` [I.101], for which the Efficacy in the data set on Pyrenophora teres came to 95%; in the data set on Septoria tritici, 100%; in the data set with Alternaria brassicae, 83%; with Uromyces appendiculatus, 100%; in the data set with Botrytis cinerea, 99%; with Sphaerotheca fuliginea, 100%. Further, in the data set on Puccinia recondita, the Efficacy is recorded as 100%. The compound further gave a logP in data set [1] of 4.09.
For the compound `Cc1cscc1-c1ccc(Cl)cc1CN(C(=O)c1c(C(F)F)nn(C)c1F)C1CC1` [I.104], the Efficacy with Pyrenophora teres stood at 70%; with Septoria tritici it was 88%; in the data set with Alternaria brassicae, 83%; with Uromyces appendiculatus it was 100%; in the data set with Botrytis cinerea, 93%; in the data set on Sphaerotheca fuliginea, 100%. The same compound displayed an Efficacy in the data set with Puccinia recondita of 95%. The compound also yielded a logP in data set [1] of 4.34.
